# Where a name gives a salt, the structure may show the parent alone.
# Target: 5HT3a receptor expressed in HEK-293T cells (Homo sapiens (Human), UniProt P46098)
# Assay: Inhibition of Ca flux activity of 5HT3 in vitro assay
# Format: cell-based
# Details: calcium flux, 5HT 216 nM, approximate values
# How it was run: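 HEK-293T cells transiently transfected with human 5HT3a, loaded 1 hour at 37° C with calcium dye in HBSS/20 mM HEPES, preincubated with compound (10^−7 to 10^−10, half-log) 10 minutes at room temperature.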
# Chain of 5HT3a receptor expressed in HEK-293T cells (P46098 24-478): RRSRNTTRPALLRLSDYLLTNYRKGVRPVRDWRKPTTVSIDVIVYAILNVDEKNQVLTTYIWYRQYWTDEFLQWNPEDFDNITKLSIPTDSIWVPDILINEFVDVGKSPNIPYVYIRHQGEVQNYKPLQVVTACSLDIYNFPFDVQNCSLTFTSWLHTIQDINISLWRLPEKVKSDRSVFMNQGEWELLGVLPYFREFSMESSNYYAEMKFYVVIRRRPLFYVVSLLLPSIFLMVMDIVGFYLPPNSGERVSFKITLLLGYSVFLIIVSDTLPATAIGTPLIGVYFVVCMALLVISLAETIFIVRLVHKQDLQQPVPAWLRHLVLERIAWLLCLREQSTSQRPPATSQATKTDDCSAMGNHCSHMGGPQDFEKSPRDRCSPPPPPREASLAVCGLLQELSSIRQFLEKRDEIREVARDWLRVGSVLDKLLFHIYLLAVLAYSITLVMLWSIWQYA
row,Compound,IC50 [nM]
1,"O=C(NC1C[C@H]2COC[C@@H](C1)N2)c1cn(CC(F)F)c2ncccc12 (stereo partly drawn) [Example 82, N-((1R,5S,7S)-3-oxa-9-azabicyclo[3.3.1]nonan-7-yl)-1-(2,2-difluoroethyl)-1H-pyrrolo[2,3-b]pyridine-3-carboxamide, 2,2,2-trifluoroacetate]",> 1000
2,"CS(=O)(=O)n1cc(C(=O)OC23CCN(CC2)CC3)c2cc(F)ccc21 [Example 37, quinuclidin-4-yl 5-fluoro-1-(methylsulfonyl)-1H-indole-3-carboxylate, 2,2,2-trifluoroacetate]",> 1000
3,"CN1[C@@H]2COC[C@H]1CC(NC(=O)c1cn(-c3ccnnc3)c3ccccc13)C2 (stereo partly drawn) [Example 190, N-((1R,5S,7S)-9-methyl-3-oxa-9-azabicyclo[3.3.1]nonan-7-yl)-1-(pyridazin-4-yl)-1H-indole-3-carboxamide]",0.75
4,"CN1[C@@H]2COC[C@H]1CC(OC(=O)c1cn(CC(F)(F)F)c3ncccc13)C2 (stereo partly drawn) [Example 49, (1R,5S,7S)-9-methyl-3-oxa-9-azabicyclo[3.3.1]nonan-7-yl 1-(2,2,2-trifluoroethyl)-1H-pyrrolo[2,3-b]pyridine-3-carboxylate, 2,2,2-trifluoroacetate]",1.82
5,"O=C(NC1C[C@H]2COC[C@@H](C1)N2)c1cn(CC(F)(F)F)c2ncc(F)cc12 (stereo partly drawn) [Example 105, N-((1R,5S,7S)-3-oxa-9-azabicyclo[3.3.1]nonan-7-yl)-5-fluoro-1-(2,2,2-trifluoroethyl)-1H-pyrrolo[2,3-b]pyridine-3-carboxamide, 2,2,2-trifluoroacetate]",34.1
6,"CN1C2COCC1CC(NC(=O)c1cn(CC(F)F)c3ncccc13)C2 [Example 64, 1-(2,2-difluoroethyl)-N-((1R,5S,7S)-9-methyl-3-oxa-9-azabicyclo[3.3.1]nonan-7-yl)-1H-pyrrolo[2,3-b]pyridine-3-carboxamide, 2,2,2-trifluoroacetate]",1.43
7,"CN1[C@@H]2COC[C@H]1C[C@@H](NC(=O)c1cn(C(F)(F)C(F)F)c3ncc(F)cc13)C2 [Example 53, 5-fluoro-N-((1R,5S,7S)-9-methyl-3-oxa-9-azabicyclo[3.3.1]-nonan-7-yl)-1-(1,1,2,2-tetrafluoroethyl)-1H-pyrrolo[2,3-b]pyridine-3-carboxamide, 2,2,2-trifluoroacetate]",1.05
8,"(1R,5S,7S)-9-methyl-3-oxa-9-azabicyclo[3.3.1]nonan-7-yl 1-(5-fluoropyrazin-2-yl)-1H-indole-3-carboxylate, 2,2,2-trifluoroacetic acid salt [Example 33]",14.4
9,"CN1[C@@H]2CC[C@H]1CC(OC(=O)c1cn(S(C)(=O)=O)c3ccc(F)cc13)C2 (stereo partly drawn) [Example 86, (1R,3R,5S)-8-methyl-8-azabicyclo[3.2.1]octan-3-yl 5-fluoro-1-(methylsulfonyl)-1H-indole-3-carboxylate, 2,2,2-trifluoroacetate]",2.48
10,"CN(C(=O)c1cn(-c2cnsc2)c2ccccc12)[C@H]1C[C@H]2COC[C@@H](C1)N2 [Example 185, N-((1R,5S,7S)-3-oxa-9-azabicyclo[3.3.1]nonan-7-yl)-1-(isothiazol-4-yl)-N-methyl-1H-indole-3-carboxamide]",3.06
11,"CS(=O)(=O)n1cc(C(=O)NC2C[C@H]3COC[C@@H](C2)N3)c2cc(F)ccc21 (stereo partly drawn) [Example 78, N-((1R,5S,7S)-3-oxa-9-azabicyclo[3.3.1]nonan-7-yl)-5-fluoro-1-(methylsulfonyl)-1H-indole-3-carboxamide, 2,2,2-trifluoroacetate]",4.81
12,"(1R,5S,7s)-9-methyl-3-oxa-9-azabicyclo[3.3.1]nonan-7-yl 1-(6-hydroxypyridazin-3-yl)-1H-indole-3-carboxylate, 2,2,2-trifluoroacetic acid salt [Example 32]",1.38
13,"O=C(OC1C[C@H]2COC[C@@H](C1)N2CCF)c1cn(CC(F)(F)F)c2ccc(F)cc12 (stereo partly drawn) [Example 50, (1R,5S,7S)-9-(2-fluoroethyl)-3-oxa-9-azabicyclo[3.3.1]nonan-7-yl 5-fluoro-1-(2,2,2-trifluoroethyl)-1H-indole-3-carboxylate, 2,2,2-trifluoroacetate]",13
14,"CN1[C@@H]2COC[C@H]1CC(NC(=O)c1cn(-c3cccnn3)c3ccccc13)C2 (stereo partly drawn) [Example 123, N-((1R,5S,7S)-9-methyl-d3-3-oxa-9-azabicyclo[3.3.1]nonan-7-yl)-1-(pyridazin-3-yl)-1H-indole-3-carboxamide, 2,2,2-trifluoroacetate]",0.28
15,"CN1[C@@H]2CCC[C@H]1CC(NC(=O)c1cn(CC(F)F)c3ccc(F)cc13)C2 (stereo partly drawn) [Example 98, 1-(2,2-difluoroethyl)-5-fluoro-N-((1R,3R,5S)-9-methyl-9-azabicyclo[3.3.1]nonan-3-yl)-1H-indole-3-carboxamide, 2,2,2-trifluoroacetate]",5.45
16,"Cc1c(C(=O)OC2C[C@H]3CCC[C@@H](C2)N3C)c2ccccc2n1CCF (stereo partly drawn) [Example 88, (1R,3R,5S)-9-methyl-9-azabicyclo[3.3.1]nonan-3-yl 1-(2-fluoroethyl)-2-methyl-1H-indole-3-carboxylate, 2,2,2-trifluoroacetate]",0.22
17,"CN1C2CCC1CC(NC(=O)c1nn(S(C)(=O)=O)c3ccccc13)C2 [Example 62, N-((1R,3R,5S)-8-methyl-8-azabicyclo[3.2.1]octan-3-yl)-1-(methylsulfonyl)-1H-indazole-3-carboxamide, 2,2,2-trifluoroacetate]",0.75

row,Compound,IC50 [nM]
1,CN1[C@@H]2COC[C@H]1CC(NC(=O)c1cn(CC(F)(F)F)c3ccccc13)C2 (stereo partly drawn),0.68
2,"CN1[C@@H]2CCC[C@H]1CC(NC(=O)c1cn(CC(F)F)c3ncccc13)C2 (stereo partly drawn) [Example 77, 1-(2,2-difluoroethyl)-N-((1R,3R,5S)-9-methyl-9-azabicyclo[3.3.1]nonan-3-yl)-1H-pyrrolo[2,3-b]pyridine-3-carboxamide, 2,2,2-trifluoroacetate]",10.5
3,"CN1[C@@H]2COC[C@H]1C[C@@H](OC(=O)c1cn(-c3ccc(F)nn3)c3ccc(C#N)cc13)C2 [Example 161, 1R,5S,7s)-9-methyl-3-oxa-9-azabicyclo[3.3.1]nonan-7-yl 5-cyano-1-(6-fluoropyridazin-3-yl)-1H-indole-3-carboxylate]",> 1000
4,"CN1C2CCCC1CC(OC(=O)c1cn(CC(F)F)c3ncccc13)C2 [Example 61, (1R,3R,5S)-9-methyl-9-azabicyclo[3.3.1]nonan-3-yl 1-(2,2-difluoroethyl)-1H-pyrrolo[2,3-b]pyridine-3-carboxylate, 2,2,2-trifluoroacetate]",1
5,"CC(C)CS(=O)(=O)n1cc(C(=O)OC2C[C@H]3COC[C@@H](C2)N3)c2ccccc21 (stereo partly drawn) [Example 135, (1R,5S,7S)-3-oxa-9-azabicyclo[3.3.1]nonan-7-yl 1-(isobutylsulfonyl)-1H-indole-3-carboxylate, 2,2,2-trifluoroacetate]",11.7
6,"CN1C2COCC1CC(NC(=O)c1cn(-c3nccs3)c3ccccc13)C2 [Example 118, N-((1R,5S,7S)-9-methyl-3-oxa-9-azabicyclo[3.3.1]nonan-7-yl)-1-(thiazol-2-yl)-1H-indole-3-carboxamide, 2,2,2-trifluoroacetate]",0.86
7,"N-((1R,5S,7s)-9-methyl-3-oxa-9-azabicyclo[3.3.1]nonan-7-yl)-1-phenyl-1H-indole-3-carboxamide, 2,2,2-trifluoroacetic acid salt [Example 26]",0.54
8,"O=C(NC1CC2COCC(C1)N2C(F)(F)F)c1cn(CC(F)F)c2ncccc12 [Example 104, 1-(2,2-difluoroethyl)-N-((1R,5S,7S)-9-(trifluoromethyl)-3-oxa-9-azabicyclo[3.3.1]nonan-7-yl)-1H-pyrrolo[2,3-b]pyridine-3-carboxamide, 2,2,2-trifluoroacetate]",> 1000
9,"(1R,5S,7s)-3-oxa-9- azabicyclo[3.3.1]nonan- 7-yl 1-(isothiazol-3-yl)- 1H-indole-3- carboxamide, 2,2,2- trifluoroacetic acid salt [Example 145]",2.71
10,"5-fluoro-N-((1R,5S,7S)-9-methyl-d3-3-oxa-9-azabicyclo[3.3.1]nonan-7-yl)-1-(2,2,2-trifluoroethyl)-1H-pyrrolo[2,3-b]pyridine-3-carboxamide 2,2,2-trifluoroacetate [Example 18]",4.06
11,"CN1C2COCC1CC(NC(=O)c1cn(-c3cncnc3)c3ccccc13)C2 [Example 120, N-((1R,5S,7S)-9-methyl-3-oxa-9-azabicyclo[3.3.1]nonan-7-yl)-1-(pyrimidin-5-yl)-1H-indole-3-carboxamide, 2,2,2-trifluoroacetate]",0.39
12,"CN1[C@@H]2CC[C@H]1CC(OC(=O)c1c3n(c4ccccc14)CCCCO3)C2 (stereo partly drawn) [Example 84, (1R,3R,5S)-8-methyl-8-azabicyclo[3.2.1]octan-3-yl 2,3,4,5-tetrahydro-[1,3]oxazepino[3,2-a]indole-11-carboxylate, 2,2,2-trifluoroacetate]",1.64
13,"CN1[C@@H]2COC[C@H]1C[C@@H](NC(=O)c1cn(-c3cscn3)c3ncccc13)C2 [Example 147, N-((1R,5S,7s)-9-methyl-3-oxa-9-azabicyclo[3.3.1]nonan-7-yl)-1-(thiazol-4-yl)-1H-pyrrolo[2,3-b]pyridine-3-carboxamide, 2,2,2-trifluoroacetic acid salt]",0.4
14,"O=C(N[C@H]1CN2CCC1CC2)c1cn(CC(F)F)c2ncccc12 [Example 67, (R)-1-(2,2-difluoroethyl)-N-(quinuclidin-3-yl)-1H-pyrrolo[2,3-b]pyridine-3-carboxamide, 2,2,2-trifluoroacetate]",> 1000
15,"CN1C2COCC1CC(NC(=O)c1cn(-c3cncs3)c3ncccc13)C2 [Example 148, N-((1R,5S,7s)-9-methyl-3-oxa-9-azabicyclo[3.3.1]nonan-7-yl)-1-(thiazol-5-yl)-1H-pyrrolo[2,3-b]pyridine-3-carboxamide, 2,2,2-trifluoroacetic acid salt]",0.4
16,"CN1[C@@H]2CC[C@H]1CC(OC(=O)c1cn([C@@H]3CCOC3)c3ccccc13)C2 (stereo partly drawn) [Example 83, (1R,3R,5S)-8-methyl-8-azabicyclo[3.2.1]octan-3-yl 1-((R)-tetrahydrofuran-3-yl)-1H-indole-3-carboxylate, 2,2,2-trifluoroacetate]",1.04

# Source: US9303045B2, “5-HT3 receptor antagonists” (Takeda Pharmaceutical Company Limited, priority 2013, dated 2016)
